Values of other authors, collected in patent US20070212431A1, “Cream for treatment of skin injured by the sun” (priority 2001, published 2007).

Assays:
photodamaged skin = details: controlled studies (Q-10); open uncontrolled clinical study (lipoic acid)
[1] = topical application to the skin
[2] = applied to the skin in ethyl alcohol solution, after penetrating the horny layer

| SMILES | effect on photodamaged skin (photodamaged skin) | time until found in the dermis [1] | share reaching the dermis [2] | share reaching the living part of epidermis [2] |
| --- | --- | --- | --- | --- |
| O=C(O)CCCCC1CCSS1 (racemic) [lipoic acid, d,l-α-lipoic acid] | shown to have an effect on photodamaged skin to a certain extent | ≤ 4 h | – | – |
| COC1=C(OC)C(=O)C(C/C=C(\C)CC/C=C(\C)CC/C=C(\C)CC/C=C(\C)CC/C=C(\C)CC/C=C(\C)CC/C=C(\C)CC/C=C(\C)CC/C=C(\C)CCC=C(C)C)=C(C)C1=O [Q-10, coenzyme Q-10] | to some extent has been shown to have an effect | – | ~2% | about 20% |
